{"source": "patent US7659299B2", "about": "“Compounds inhibiting the binding of sap for treating osteoarthritis” (Pentraxin Therapeutics Limited, priority 2003, dated 2010)", "key": {"[1]": {"target": "T1, SAP (Homo sapiens, UniProt P02743)", "T1 sequence (P02743 20-223)": "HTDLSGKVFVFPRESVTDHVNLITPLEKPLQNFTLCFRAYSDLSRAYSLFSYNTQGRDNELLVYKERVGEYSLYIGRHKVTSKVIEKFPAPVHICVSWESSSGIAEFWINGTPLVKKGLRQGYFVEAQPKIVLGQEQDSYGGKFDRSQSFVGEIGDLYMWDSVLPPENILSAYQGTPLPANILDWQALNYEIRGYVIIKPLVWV", "assay": "Lead identification: inhibition of ligand binding by SAP (SAP binding to amyloid fibrils, high throughput screening)", "conditions": "compared with the original hit Ro-15-3479", "description": "The compounds tested in the experiment shown here were a family of molecules developed as inhibitors of SAP binding to amyloid fibrils, following identification of an initial lead molecule during high throughput screening of a large compound library according to U.S. Pat. No. 6,126,918. […] A chemistry programme then produced, (R)-1-[6-(R)-2-Carboxy-pyrrolidin-1-yl]-6-oxo-hexanoyl]pyrrolidine-2-carboxylic acid (Ro-63-8695) (Example 8b of EP-A-915088) and a family of related molecules, that were tested here."}, "[2]": {"target": "T1, SAP", "assay": "Inhibition of binding of 125I radiolabelled SAP to native long chromatin immobilized in microtitre plates", "design": "5 μl of radiolabelled SAP in TN; from tissue", "conditions": "read-out: Percent inhibition of binding of radiolabelled SAP to immobilized native long chromatin"}, "[3]": {"target": "T1, SAP", "assay": "Inhibition of binding of 125I radiolabelled SAP to influenza virus immobilized in microtitre plates", "design": "5 μl of radiolabelled SAP in TN; from tissue", "conditions": "read-out: Percent inhibition of binding of radiolabelled SAP to immobilized influenza virus", "experimental": "A concentrated suspension of purified influenza virus A/Shanghai/24/90 at 10 mg protein per ml in PBS was diluted 1:50 in PBS and then dispensed to polystyrene microtitre plates at 50 μl volumes per well, and left overnight at 4° C. All wells were then emptied before blocking by addition to each well of 200 μl of 2% w/v BSA in PBS and incubation at room temperature for 1 h. All wells were then washed three times with 200 μl volumes of PBS containing 0.05% v/v Tween 20, prior to equilibration for 2 min with 0.01M Tris buffered 0.14M NaCl/0.002M CaCl2 at pH 8.0 (TC buffer), containing 4% w/v BSA and 0.05% v/v Tween 20 (TCBT buffer). The wells were then emptied before adding to each one the following reagents. […] For background, non-specific, non calcium dependent, binding in the presence of EDTA: 5 μl radiolabelled SAP in TN and 45 μl 0.01M Tris buffered 0.14M NaCl at pH 8.0 containing 11.1 mM EDTA, 4.4% w/v BSA and 0.06% w/v Tween 20 (TEBT buffer) to provide final concentrations of EDTA, 10 mM; BSA, 4%; Tween 20, 0.05%. […] All wells were then incubated at room temperature for 2 h before being washed three times with 200 μl volumes of TCBT, allowed to dry for 1 h at room temperature, and bound radiolabelled SAP was then counted. The compounds tested in the experiment shown here were the same as those specified in Example B above.\nThe capacity of the compounds tested to inhibit binding of SAP to the immobilised influenza virus is expressed as the percentage by which SAP binding was reduced compared to binding in the absence of any inhibitor (Table 3)."}, "[4]": {"target": "T1, SAP", "assay": "Inhibition of binding of 125I radiolabelled SAP to Neisseria meningitidis immobilized in microtitre plates", "design": "5 μl of radiolabelled SAP in TN; from tissue", "conditions": "read-out: Percent inhibition of binding of radiolabelled SAP to immobilized Neisseria meningitidis", "experimental": "A suspension of heat killed Neisseria meningitidis at 1×10^8 organisms per ml in PBS was dispensed to polystyrene microtitre plates at 50 μl volumes per well, and left overnight at 4° C. All wells were then washed three times with 200 μl volumes of PBS containing 0.05% v/v Tween 20, prior to equilibration for 2 min with 0.01M Tris buffered 0.14M NaCl/0.002M CaCl2 at pH 8.0 (TC buffer), containing 4% w/v BSA and 0.05%/v Tween 20 (TCBT buffer). The wells were then emptied before adding to each one the following reagents. […] For background, non-specific, non calcium dependent, binding in the presence of EDTA: 5 μl radiolabelled SAP in TN and 45 μl 0.01M Tris buffered 0.14M NaCl at pH 8.0 containing 11.1 mM EDTA, 4.4% w/v BSA and 0.06% w/v Tween 20 (TEBT buffer) to provide final concentrations of EDTA, 10 mM; BSA, 4%; Tween 20, 0.05%. […] All wells were then incubated at room temperature for 2 h before being washed three times with 200 μl volumes of TCBT, allowed to dry for 1 h at room temperature, and bound radiolabelled SAP was then counted.\nThe capacity of the compounds tested to inhibit binding of SAP to meningococci is expressed as the percentage by which SAP binding was reduced compared to binding in the absence of any inhibitor (Table 1)."}}, "data": [{"smiles": "C[C@H](CSSC[C@@H](C)C(=O)N1CCC[C@@H]1C(=O)O)C(=O)N1CCC[C@@H]1C(=O)O", "note": "[Ro-63-3300, (R)-1-[(S)-3-[(S)-3-[(R)-2-carboxy-pyrrolidin-1-yl]-2-methyl-3-oxo-propyldisulfanyl]-2-methyl-propionyl]-pyrrolidine-2-carboxylic acid]", "values": [{"measurement": "Inhibition of ligand binding by SAP, in words", "setting": "[1]", "result": "much more potent"}, {"measurement": "inhibition at 0.2 µM", "setting": "[2]; compound 200 nM", "result": 3, "unit": "%"}, {"measurement": "inhibition at 2 µM", "setting": "[2]; compound 2 μM", "result": 34, "unit": "%"}, {"measurement": "inhibition at 20 µM", "setting": "[2]; compound 20 μM", "result": 69, "unit": "%"}, {"measurement": "inhibition at 200 µM", "setting": "[2]; compound 200 μM", "result": 88, "unit": "%"}, {"measurement": "inhibition at 2000 µM", "setting": "[2]; compound 2 mM", "result": 99, "unit": "%"}, {"measurement": "inhibition at 0.2 µM", "setting": "[3]; compound 200 nM", "result": 47, "unit": "%"}, {"measurement": "inhibition at 2 µM", "setting": "[3]; compound 2 μM", "result": 78, "unit": "%"}, {"measurement": "inhibition at 20 µM", "setting": "[3]; compound 20 μM", "result": 90, "unit": "%"}, {"measurement": "inhibition at 200 µM", "setting": "[3]; compound 200 μM", "result": 91, "unit": "%"}, {"measurement": "inhibition at 2000 µM", "setting": "[3]; compound 2 mM", "result": 91, "unit": "%"}, {"measurement": "inhibition at 0.2 µM", "setting": "[4]; compound 200 nM", "result": 28, "unit": "%"}, {"measurement": "inhibition at 2 µM", "setting": "[4]; compound 2 μM", "result": 68, "unit": "%"}, {"measurement": "inhibition at 20 µM", "setting": "[4]; compound 20 μM", "result": 73, "unit": "%"}, {"measurement": "inhibition at 2000 µM", "setting": "[4]; compound 2 mM", "result": 100, "unit": "%"}]}]}
